# According to patent US8697877B2, “Oxyindole derivatives with motilin receptor agonistic activity” (RaQualia Pharma Inc., priority 2009, dated 2014):
# Biological target: T1, human motilin receptor (GPR38) (Homo sapiens, UniProt O43193)
# T1 construct: expressed in transfected cells; host or cells: CHO-K1
# Assay: GPR38 (Motilin Receptor) Functional Assay, NFAT-beta-lactamase reporter in CHO-K1 cells
# Type: cell-based
# Conditions: not given
# Description: The potencies and efficacies of the compounds of this invention for GPR38 can be determined by reporter assay performed on the human cloned receptor as described herein.
# GPR38 (Motilin Receptor) Functional Assay
# A CHO-K1 cell line stably transfected NFAT-beta-lactamase reporter and human motilin receptor gene was used. The cells were cultured in culture medium (Dulbecco's modified eagle medium containing 10% fetal bovine serum, 1 mM sodium pyruvate, 0.1 mM MEM nonessential amino acids, 25 mM HEPES buffer, 50 units/mL penicillin, 50 microg/mL streptomycin, 100 microg/mL zeocin, and 500 microg/mL G418). The cells were harvested with 0.05% trypsin EDTA and centrifuged. The cell pellets were resuspended in the culture medium and plated into a black/clear bottom 384-well plate at a density of 8000 cells per well, then incubated at 37° C. with 5% CO2 for over night (about 20 hours). On the day of assay, the culture medium was aspirated and 20 microL of assay medium (Dulbecco's modified eagle medium containing 100 units/mL penicillin and 100 microg/mL streptomycin) was added to each well, then the cell plates were placed in incubator at 37° C. with 5% CO2 for 1.5 hours. Compounds were prepared in 100% DMSO and these were diluted to 5× of final concentration with assay buffer (Hanks balanced salt solution, 20 mM HEPES, and 0.1% BSA), then dispensed into 384-well plate (5 microL/well). After incubation at 37° C. with 5% CO2 for 4.5 hours, CCF4-AM loading solution (Invitrogen Corp.) was added to each well. After incubation for 2 hours at room temperature, fluorescence intensities were measured by using plate reader FDSS (Hamamatsu Photonics K. K.) with excitation 400 nm, emission 465 nm/540 nm. Agonistic activity (EC50) was calculated from the sigmoidal dose-response curve using GraphPad Prism software (GraphPad Software, Inc.).
# T1 sequence (O43193 whole entry): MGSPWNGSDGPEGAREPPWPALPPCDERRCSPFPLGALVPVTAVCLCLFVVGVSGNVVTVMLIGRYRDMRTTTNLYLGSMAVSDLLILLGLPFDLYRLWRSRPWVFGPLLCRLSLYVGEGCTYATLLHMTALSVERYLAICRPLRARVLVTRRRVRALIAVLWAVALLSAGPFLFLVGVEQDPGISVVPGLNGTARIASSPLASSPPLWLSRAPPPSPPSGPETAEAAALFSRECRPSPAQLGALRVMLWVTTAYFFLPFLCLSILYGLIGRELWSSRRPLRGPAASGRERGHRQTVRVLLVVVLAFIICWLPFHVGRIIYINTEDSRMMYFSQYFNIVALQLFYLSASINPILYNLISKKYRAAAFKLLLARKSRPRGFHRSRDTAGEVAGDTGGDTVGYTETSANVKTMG
row,SMILES,EC50 [nM]
1,"CN[C@@H]1CC[C@H](C(=O)N[C@@H](Cc2ccccc2F)C(=O)N2CCC(N3C(=O)C(C)(C)c4ccccc43)CC2)C1 [Example 32, (1S,3R)-N-((S)-1-(4-(3,3-dimethyl-2-oxoindolin-1-yl)piperidin-1-yl)-3-(2-fluorophenyl)-1-oxopropan-2-yl)-3-(methylamino)cyclopentane-carboxamide]",≤ 10
2,"CC1(C)C(=O)N(C2CCN(C(=O)[C@H](CCc3ccccc3)NC(=O)[C@@H](N)C(C)(C)C)CC2)c2ccccc21 [Example 3, (S)-2-amino-N-((S)-1-(4-(3,3-dimethyl-2-oxoindolin-1-yl)piperidin-1-yl)-1-oxo-4-phenylbutan-2-yl)-3,3-dimethylbutanamide]",≤ 10
3,"CN[C@@H]1CC[C@H](C(=O)N[C@@H](Cc2ccc(OC)cc2)C(=O)N2CCC(N3C(=O)C(C)(C)c4ccccc43)CC2)C1 [Example 37, (1S,3R)-N-((S)-1-(4-(3,3-dimethyl-2-oxoindolin-1-yl)piperidin-1-yl)-3-(4-methoxyphenyl)-1-oxopropan-2-yl)-3-(methylamino)cyclopentanecarboxamide]",≤ 10
4,"CC1(C)C(=O)N(C2CCN(C(=O)[C@H](CCc3ccccc3)NC(=O)CN3CCCC3)CC2)c2ccccc21 [Example 17, (S)—N-(1-(4-(3,3-dimethyl-2-oxoindolin-1-yl)piperidin-1-yl)-1-oxo-4-phenylbutan-2-yl)-2-(pyrrolidin-1-yl)acetamide]",≤ 10
5,"CC1(C)C(=O)N(C2CCN(C(=O)[C@H](CCc3ccccc3)NC(=O)N[C@@H]3CCNC3)CC2)c2ccccc21 [Example 52, 1-((S)-1-(4-(3,3-dimethyl-2-oxo-indolin-1-yl)piperidin-1-yl)-1-oxo-4-phenylbutan-2-yl)-3-((R)-pyrrolidin-3-yl)urea]",≤ 10
6,"CC1(C)C(=O)N(C2CCN(C(=O)[C@H](CCc3ccccc3)NC(=O)C3CNC3)CC2)c2ccccc21 [Example 9, (S)-N-(1-(4-(3,3-dimethyl-2-oxoindolin-1-yl)piperidin-1-yl)-1-oxo-4-phenylbutan-2-yl)azetidine-3-carboxamide]",≤ 10
7,"CC1(C)C(=O)N(C2CCN(C(=O)[C@H](Cc3ccccc3Cl)NC(=O)[C@@H]3CCCNC3)CC2)c2ccccc21 [Example 86, (R)-N-((S)-3-(2-chloro-phenyl)-1-(4-(3,3-dimethyl-2-oxoindolin-1-yl)piperidin-1-yl)-1-oxo-propan-2-yl)piperidine-3-carboxamide]",≤ 10
8,"CN[C@@H]1CC[C@H](C(=O)N[C@@H](Cc2ccccc2)C(=O)N2CCC(N3C(=O)C(C)(C)c4ccccc43)CC2)C1 [Example 30, (1S,3R)-N-((S)-1-(4-(3,3-dimethyl-2-oxoindolin-1-yl)piperidin-1-yl)-1-oxo-3-phenylpropan-2-yl)-3-(methylamino) cyclopentanecarboxamide]",≤ 10
9,"CC1(NC(=O)N[C@@H](CCc2ccccc2)C(=O)N2CCC(N3C(=O)C(C)(C)c4ccccc43)CC2)CCNCC1 [Example 56, (S)-1-(1-(4-(3,3-dimethyl-2-oxo-indolin-1-yl)piperidin-1-yl)-1-oxo-4-phenylbutan-2-yl)-3-(4-methyl-piperidin-4-yl)urea]",≤ 10
10,"CC1(C)C(=O)N(C2CCN(C(=O)[C@H](CCc3ccccc3)NC(=O)[C@@H]3CCCNC3)CC2)c2ccc(F)cc21 [Example 44, (R)—N—((S)-1-(4-(5-fluoro-3,3-dimethyl-2-oxoindolin-1-yl)piperidin-1-yl)-1-oxo-4-phenylbutan-2-yl)piperidine-3-carboxamide]",≤ 10
11,"CN[C@@H]1CC[C@H](C(=O)N[C@@H](CC2CCCCC2)C(=O)N2CCC(N3C(=O)C(C)(C)c4ccccc43)CC2)C1 [Example 23, (1S,3R)-N-((S)-3-cyclohexyl-1-(4-(3,3-dimethyl-2-oxoindolin-1-yl)piperidin-1-yl)-1-oxopropan-2-yl)-3-(methyl-amino)cyclopentanecarboxamide]",≤ 10
12,"CN(C1CC1)[C@H]1CCN(C(=O)N[C@@H](CCc2ccccc2)C(=O)N2CCC(N3C(=O)C(C)(C)c4ccccc43)CC2)C1 [Example 63, (S)-3-(cyclopropyl(methyl)amino)-N-((S)-1-(4-(3,3-dimethyl-2-oxo-indolin-1-yl)piperidin-1-yl)-1-oxo-4-phenylbutan-2-yl)pyrrolidine-1-carboxamide]",≤ 10
13,"CN(C)CCNC(=O)N[C@@H](CCc1ccccc1)C(=O)N1CCC(N2C(=O)C(C)(C)c3ccccc32)CC1 [Example 65, (S)-1-(1-(4-(3,3-dimethyl-2-oxo-indolin-1-yl)piperidin-1-yl)-1-oxo-4-phenylbutan-2-yl)-3-(2-(dimethyl-amino)ethyl)urea]",≤ 10
14,"CN[C@H]1CCN(C(=O)N[C@@H](CCc2ccccc2)C(=O)N2CCC(N3C(=O)C(C)(C)c4ccccc43)CC2)C1 [Example 47, (S)—N—((S)-1-(4-(3,3-dimethyl-2-oxoindolin-1-yl)piperidin-1-yl)-1-oxo-4-phenylbutan-2-yl)-3-(methylamino)pyrrolidine-1-carboxamide]",≤ 10
15,"CC1(C)C(=O)N(C2CCN(C(=O)[C@H](CCc3ccccc3)NC(=O)NC[C@@H]3CCCCN3)CC2)c2ccccc21 [Example 60, 1-((S)-1-(4-(3,3-dimethyl-2-oxo-indolin-1-yl)piperidin-1-yl)-1-oxo-4-phenylbutan-2-yl)-3-((S)-piperidin-2-ylmethyl)urea]",≤ 10
16,"CN[C@@H]1CC[C@H](C(=O)N[C@@H](Cc2c[nH]c3ccccc23)C(=O)N2CCC(N3C(=O)C(C)(C)c4ccccc43)CC2)C1 [Example 34, (1S,3R)-N-((S)-1-(4-(3,3-dimethyl-2-oxoindolin-1-yl)piperidin-1-yl)-3-(1H-indol-3-yl)-1-oxopropan-2-yl)-3-(methylamino)cyclopentane-carboxamide]",≤ 10
17,"CN[C@@H]1CC[C@H](C(=O)N[C@@H](Cc2ccccc2C(F)(F)F)C(=O)N2CCC(N3C(=O)C(C)(C)c4ccccc43)CC2)C1 [Example 22, (1S,3R)-N-((S)-1-(4-(3,3-dimethyl-2-oxoindolin-1-yl)piperidin-1-yl)-1-oxo-3-(2-(trifluoromethyl)phenyl)propan-2-yl)-3-(methylamino)cyclopentane-carboxamide]",≤ 10
18,"CC1(C)C(=O)N(C2CCN(C(=O)[C@H](CCc3ccccc3)NC(=O)[C@@H]3CCCCN3)CC2)c2ccccc21 [Example 2, (S)-N-((S)-1-(4-(3,3-dimethyl-2-oxoindolin-1-yl)piperidin-1-yl)-1-oxo-4-phenylbutan-2-yl)piperidine-2-carboxamide]",≤ 10
19,"CN[C@H]1CCN(C(=O)N[C@@H](CCc2ccccc2)C(=O)N2CCC(N3C(=O)C(C)(C)c4cc(F)ccc43)CC2)C1 [Example 70, (S)—N—((S)-1-(4-(5-fluoro-3,3-dimethyl-2-oxoindolin-1-yl)piperidin-1-yl)-1-oxo-4-phenylbutan-2-yl)-3-(methylamino)pyrrolidine-1-carboxamide]",≤ 10
20,"CC1(C)C(=O)N(C2CCN(C(=O)[C@H](CCc3ccccc3)NC(=O)CCNC3CCCC3)CC2)c2ccccc21 [Example 14, (S)-3-(cyclopentylamino)-N-(1-(4-(3,3-dimethyl-2-oxoindolin-1-yl)piperidin-1-yl)-1-oxo-4-phenylbutan-2-yl)propanamide]",≤ 10
21,"CC1(C)C(=O)N(C2CCN(C(=O)[C@H](CCc3ccccc3)NC(=O)C3CCNCC3)CC2)c2ccccc21 [Example 10, (S)-N-(1-(4-(3,3-dimethyl-2-oxoindolin-1-yl)piperidin-1-yl)-1-oxo-4-phenylbutan-2-yl)piperidine-4-carboxamide]",≤ 10
22,"CN[C@H]1CCN(C(=O)N[C@@H](Cc2ccc(Cl)cc2)C(=O)N2CCC(N3C(=O)C(C)(C)c4ccccc43)CC2)C1 [Example 94, (S)-N-((S)-3-(4-chloro-phenyl)-1-(4-(3,3-dimethyl-2-oxoindolin-1-yl)piperidin-1-yl)-1-oxopropan-2-yl)-3-(methylamino)pyrrolidine-1-carboxamide]",≤ 10
23,"CC1(C)C(=O)N(C2CCN(C(=O)[C@H](CCc3ccccc3)NC(=O)NCCN3CCCC3)CC2)c2ccccc21 [Example 64, (S)-1-(1-(4-(3,3-dimethyl-2-oxo-indolin-1-yl)piperidin-1-yl)-1-oxo-4-phenylbutan-2-yl)-3-(2-(pyrrolidin-1-yl)ethyl)urea]",≤ 10
24,"CC1(C)C(=O)N(C2CCN(C(=O)[C@H](CCc3ccccc3)NC(=O)NC[C@H]3CCCN3)CC2)c2ccccc21 [Example 51, 1-((S)-1-(4-(3,3-dimethyl-2-oxo-indolin-1-yl)piperidin-1-yl)-1-oxo-4-phenylbutan-2-yl)-3-((R)-pyrrolidin-2-ylmethyl)urea]",≤ 10
25,"CN[C@@H]1CC[C@H](C(=O)N[C@@H](Cc2ccccc2Cl)C(=O)N2CCC(N3C(=O)C(C)(C)c4ccccc43)CC2)C1 [Example 25, (1S,3R)-N-((S)-3-(2-chlorophenyl)-1-(4-(3,3-dimethyl-2-oxoindolin-1-yl)piperidin-1-yl)-1-oxopropan-2-yl)-3-(methylamino)cyclopentane-carboxamide]",≤ 10

# Same assay, conditions: ED50 (nM), Table 15; functional activity toward GPR38 (motilin receptor), (S) versus (R) amino acid linker
row,SMILES,EC50 [nM]
1,"CN[C@H]1CCN(C(=O)N[C@@H](CCc2ccccc2)C(=O)N2CCC(N3C(=O)C(C)(C)c4ccccc43)CC2)C1 [Example 47, (S)—N—((S)-1-(4-(3,3-dimethyl-2-oxoindolin-1-yl)piperidin-1-yl)-1-oxo-4-phenylbutan-2-yl)-3-(methylamino)pyrrolidine-1-carboxamide]",0.98
